Reference: patent US10221426B2, “Constitutively active PYR/PYL receptor proteins for improving plant stress tolerance” (The Regents of the University of California, priority 2009, dated 2019)

What was measured:
[1] = biological target: T1, PYR1 and PP2Cs (GST-HAB1, GST-ABI1, GST-ABI2) (Arabidopsis thaliana, UniProt O49686); assay: Pull-down assay of 6×His-PYR1 with GST-PP2Cs; type: binding; conditions: purified recombinant proteins; 10 μM (+)-ABA
T1 construct: made in house; host or cells: E. coli BL21[DE3]pLysS
T1 sequence (O49686 1-191): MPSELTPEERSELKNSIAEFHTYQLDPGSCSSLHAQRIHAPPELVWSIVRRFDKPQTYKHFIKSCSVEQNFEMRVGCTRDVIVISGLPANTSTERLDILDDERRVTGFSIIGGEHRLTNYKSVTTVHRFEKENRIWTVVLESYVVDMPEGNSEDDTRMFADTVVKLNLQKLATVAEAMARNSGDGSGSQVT
T1 sequence (Q9CAJ0 1-511 partner): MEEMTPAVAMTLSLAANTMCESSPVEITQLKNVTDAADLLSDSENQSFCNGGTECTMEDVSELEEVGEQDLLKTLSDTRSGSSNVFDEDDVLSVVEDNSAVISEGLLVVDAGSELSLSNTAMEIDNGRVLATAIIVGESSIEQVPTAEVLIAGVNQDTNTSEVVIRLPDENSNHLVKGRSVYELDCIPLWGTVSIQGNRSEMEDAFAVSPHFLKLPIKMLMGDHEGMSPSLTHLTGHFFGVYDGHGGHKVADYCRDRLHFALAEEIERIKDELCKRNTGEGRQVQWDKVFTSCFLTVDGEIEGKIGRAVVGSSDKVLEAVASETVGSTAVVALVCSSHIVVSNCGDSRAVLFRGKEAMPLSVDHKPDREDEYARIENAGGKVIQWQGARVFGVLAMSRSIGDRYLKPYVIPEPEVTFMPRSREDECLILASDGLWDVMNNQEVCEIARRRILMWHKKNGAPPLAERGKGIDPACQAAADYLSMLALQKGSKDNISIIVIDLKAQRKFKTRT
Protocol: To explore the functional implications of the PYR1-PP2C interaction, we examined if an ABA response could be reconstituted in vitro. Recombinant GST-HAB1, GST-ABI1 and GST-ABI2 were expressed in E. coli and tested for ligand-dependent interactions with 6×His-PYR1 in pull-down assays. Purified 6×His-PYR1 and GST-HAB1 (20 and 100 μg respectively, 8 μM PYR1 final concentration), were combined in 100 μl TBS containing 10 μM (+)-ABA or 1% DMSO for negative control. The reaction was incubated for 90 minutes at RT and 5 μl of PrepEase (USB) His-tagged protein purification resin was added. The resin and reaction mixture was incubated 30 min at RT with gentle shaking at 5 min intervals. The resin was washed five times with TBS containing 10 μM (+)-ABA. After the final wash, the bound protein was eluted in 20 μl SDS-PAGE buffer, boiled for 5 minutes and centrifuged. 5 μl of eluate was analyzed on SDS-PAGE. For pull-downs with ABI1 and ABI2, crude lysates were used in a similar method, except purified PP2C was replaced with cleared E. coli lysates. The amount of lysate added was determined by SDS-page analysis to yield ˜100 μg PP2C, such that the same stoichiometry was used as in assays using purified proteins.

[2] = test system: Arabidopsis seeds; assay: Seed germination inhibition; type: in vivo; conditions: for amount required to ensure 100% inhibition of germination: scored 3 days post-imbibition, dose curve analyses
Protocol: FIG. 1. Pyrabactin is a seed selective ABA agonist. (A) Structures of molecules described in this study. (B) Pyrabactin activity is suppressed by abi1-1. Seeds of the genotype shown at top were imbibed on media containing 25 μM pyrabactin and scored for germination 4 days after stratification. Shown at bottom are IC50 values for pyrabactin's germination effect on the genotypes characterized. (C) Microarray comparison of pyrabactin and ABA treatments in seeds. The Y-axis plots the log2 transformed value for a probe's response to 25 μM pyrabactin (relative to untreated control) and the X-axis a probe's response to 1 μM ABA. […] (D) Microarray comparison of cycloheximide and ABA responses in seeds. […] (E) Microarray comparison of pyrabactin and ABA responses in seedlings. Seven-day old seedlings were transferred to 10 μM ABA or 50 μM pyrabactin containing plates for 24 hours and then mRNA samples profiled. Inset in each scatter plot is the Pearson correlation coefficient for each comparison. Detailed microarray methods are described in the Examples section.
FIG. 2. PYR1 encodes an ABA responsive START-domain protein. (A) Pyr1 alleles. Shown are the allele names, strain names (in parentheses) and amino acid changes caused by the Pyr1 mutant alleles identified by screening for pyrabactin resistant mutations. (B) Pictographic representation of Pyr1 and Pyl1-Pyl4 expression values housed in public microarray databases. The heatmap shown at top right is for the first upper three panels and the bottom heatmap for the guard cell data. Plots were made using the eFP browser (D. Winter et al., PLoS ONE 2, e718 (2007)). (C) 35S::GFP-PYR1 complements pyr1-1. Seeds of the genotypes shown were stratified 4 days on 25 μM pyrabactin and then germinated at RT, 90% RH for 3 days in darkness. […] (D) Pyr/Pyls are required for normal ABA-induced gene expression in seedlings. Shown are qRT-PCR results for the ABA-responsive gene RD29. L, Ler; C, Col; and Q, quadruple mutant. (E) Pyr/Pyl genes are required for normal ABA-induced stress-induced gene expression in seedlings. Shown are qRT-PCR results for two ABA-responsive taqman probes, as described in the Examples section. L=Ler, C=Col, Q=quadruple mutant.
As part of an earlier effort, we identified a germination inhibitor named pyrabactin (Y. Zhao et al., Nat Chem Biol 3, 716 (2007)). […] To test this hypothesis, we examined the pyrabactin sensitivity of mutant lines with altered ABA signaling, biosynthesis or gibberellic acid (GA) perception.
We next performed microarray experiments to evaluate the similarity of the transcriptional responses induced by ABA and pyrabactin treatments. For microarray, tissue was prepared and RNA extracted from Columbia wild type seeds sown on 0.5×MS media (˜2500 seeds per 150 mm plate) containing either 1 μM ABA, 25 μM pyrabactin, 25 μM 2,4-Dinitrophenol (DNP), 1 μM cycloheximide, 2 μM methotrexate or 1% DMSO control plates (all chemicals are dissolved in DMSO). The concentrations utilized for these experiments were normalized for germination inhibition activity by dose curve analyses, i.e. the amount of both compounds required to ensure 100% inhibition of germination when scored 3 days post-imbibition. ABA (±stereoisomers), DNP, cycloheximide and methotrexate were purchased from Sigma Aldrich. Seeds were stratified for 4 days and then incubated in the dark at room temperature for 24 hours. […]

| Structure (SMILES) | ligand-dependent PP2C interaction with 6×His-PYR1 in pull-down [1] | amount required to ensure 100% inhibition of germination [2] | effect on germination ([2]; in vivo) | germination of Columbia wild type seeds ([2]; stratified 4 days on 25 μM pyrabactin, germinated at RT, 90% RH for 3 days in darkness) |
| --- | --- | --- | --- | --- |
| CC1=CC(=O)CC(C)(C)C1(O)/C=C/C(C)=C\C(=O)O (single isomer, unassigned; (+)) [(+)-ABA] | promote PP2C interactions with PYR1 | – | – | – |
| CC1=CC(=O)CC(C)(C)[C@@]1(O)/C=C/C(C)=C\C(=O)O [ABA, Abscisic acid] | – | 1 µM | – | – |
| O=S(=O)(NCc1ccccn1)c1ccc(Br)c2ccccc12 [pyrabactin] | promote PP2C interactions with PYR1 | 25 µM | inhibits germination | unable to germinate |
